# Test results reported in patent US11267812B2 (Mirati Therapeutics, Inc., priority 2016, dated 2022).
# Tested on: Phospho-ERK in NCI-H358 cells expressing KRas G12C
# Experiment: Cellular inhibition of KRas G12C by Phospho-ERK measurement in NCI-H358 cells
# Assay type: cell-based
# Conditions: Homo sapiens, NCI-H358, 3 h, read-out: IC50 (pERK(Thr202/Tyr204) normalized with GAPDH)
# Protocol: The cellular inhibition of KRAs G12C by exemplary compounds of the present invention was determined by measuring the amount of a downstream marker of KRas activity, phosphorylated ERK (“Phospho-ERK”).
# NCI-H358 cells (ATCC CRL-5807) express KRas G12C and were grown in RPMI medium supplemented with 10% fetal bovine serum, penicillin/streptomycin and 10 mM HEPES. Cells were plated in poly-D-Lysine coated 96-well plates at a concentration of 50,000 cells/well and allowed to attach for 8-12 hours. Diluted compounds were then added at a final concentration of 0.5% DMSO. After 3 hours, the medium was removed, 150 μL of 4% formaldehyde was added and the plates were incubated for 20 minutes. The plates were washed with PBS, and permeabilized using 150 μL of ice cold 100% methanol for 10 minutes. Non-specific antibody binding to the plates was blocked using 100 μL Licor Blocking Buffer (Li-Cor Biotechnology, Lincoln Nebr.) for 1 hour at room temperature. Positive control samples and samples lacking cells were parallel processed with test samples as standards.
# The amount Phospho-ERK was determined using an antibody specific for the phosphorylated form of ERK and compared to the amount of GAPDH. Primary antibodies used for detection were added as follows: Phospho-ERK (Cell Signaling cs9101) diluted 1:500 and GAPDH (Millipore MAB374) diluted 1:5000 in Licor block+0.05% Tween 20. The plates were incubated for 2 hours at room temperature. The plates were washed with PBS+0.05% Tween 20.
# Secondary antibodies used to visualize primary antibodies were added as follows: Anti-rabbit-680 diluted 1:1000 and Anti-mouse-800 diluted 1:1000 in Licor Block+0.050 Tween 20 and incubated for 1 hour at room temperature. The plates were washed with PBS+0.05% o Tween 20. A100 L aliquot of PBS was added to each well and the plates were read on a LICOR AERIUS plate reader.
# The pERK(Thr202/Tyr204) signal was normalized with the GAPDH signal and percent of DMSO control values were calculated. IC50 values were generated using a 4 parameter fit of the dose response curve. Key: “A”≥0.001-≤1 μM; “B”[…] and ND=not determined.
row,Compound,IC50 [nM]
1,"C=CC(=O)N1CCN(c2nc(OC[C@H]3CCN(C)C3)nc3c2CCN(c2cc(O)cc4ccccc24)C3)CC1 [Example 188, (S)-1-(4-(7-(3-hydroxynaphthalen-1-yl)-2-((1-methylpyrrolidin-3-yl)methoxy)-5,6,7,8-tetrahydropyrido[3,4-d]pyrimidin-4-yl)piperazin-1-yl)prop-2-en-1-one]",1 to 1000

# Same assay, conditions: Homo sapiens; NCI-H358 cells, 3 hours compound treatment; read-out: IC50 (pERK(Thr202/Tyr204) normalized with GAPDH)
row,Compound,IC50 [nM]
1,"C=CC(=O)N1CCN(c2nc(OC[C@@H]3CCCN(C)C3)nc3c2CCN(c2cc(O)cc4ccccc24)C3)CC1 [Example 192, (R)-1-(4-(7-(3-hydroxynaphthalen-1-yl)-2-((1-methylpiperidin-3-yl)methoxy)-5,6,7,8-tetrahydropyrido[3,4-d]pyrimidin-4-yl)piperazin-1-yl)prop-2-en-1-one]",1 to 1000
2,"C=CC(=O)N1CCN(c2nc(OC[C@@H]3C[C@H](F)CN3C)nc3c2CCN(c2cccc4ccccc24)C3)CC1CC#N (stereo partly drawn) [Example 221, 2-(1-acryloyl-4-(2-(((2S,4S)-4-fluoro-1-methylpyrrolidin-2-yl)methoxy)-7-(naphthalen-1-yl)-5,6,7,8-tetrahydropyrido[3,4-d]pyrimidin-4-yl)piperazin-2-yl)acetonitrile]",1 to 1000
3,"C=CC(=O)N1CCN(c2nc(OC[C@@H]3CCCN3C)nc3c2CCN(c2c(C)ccc4cn[nH]c24)C3)CC1CC#N (stereo partly drawn) [Example 238, 2-(1-acryloyl-4-(7-(6-methyl-1H-indazol-7-yl)-2-(((S)-1-methylpyrrolidin-2-yl)methoxy)-5,6,7,8-tetrahydropyrido[3,4-d]pyrimidin-4-yl)piperazin-2-yl)acetonitrile]",1 to 1000
4,"C=CC(=O)N1CCN(c2nc(OCCCN3CCN(C)CC3)nc3c2CCN(c2cc(O)cc4ccccc24)C3)CC1 [Example 82, 1-(4-(7-(3-hydroxynaphthalen-1-yl)-2-(3-(4-methylpiperazin-1-yl)propoxy)-5,6,7,8-tetrahydropyrido[3,4-d]pyrimidin-4-yl)piperazin-1-yl)prop-2-en-1-one]",1 to 1000
5,"C=CC(=O)N1CCN(c2nc(OC[C@H]3CCCN3C)nc3c2CCN(c2c(C(F)(F)F)ccc4[nH]ncc24)C3)CC1CC#N (stereo partly drawn) [Example 243, 2-[4-[2-[[(2R)-1-methylpyrrolidin-2-yl]methoxy]-7-[5-(trifluoromethyl)-1H-indazol-4-yl]-6,8-dihydro-5H-pyrido[3,4-d]pyrimidin-4-yl]-1-prop-2-enoyl-piperazin-2-yl]acetonitrile]",1 to 1000
6,"C=CC(=O)N1CCN(c2nc(OC[C@@H]3CCCN3C)nc3c2CCN(c2cc(O)cc4ccccc24)C3)C(CO)C1 (stereo partly drawn) [Example 169, 1-[3-(hydroxymethyl)-4-[7-(3-hydroxy-1-naphthyl)-2-[[(2S)-1-methylpyrrolidin-2-yl]methoxy]-6,8-dihydro-5H-pyrido[3,4-d]pyrimidin-4-yl]piperazin-1-yl]prop-2-en-1-one]",1 to 1000
7,"C=CC(=O)N1CCN(c2nc(OC[C@@H]3CCCN3C)nc3c2CCN(c2cncc4ccccc24)C3)CC1CC#N (stereo partly drawn) [Example 260, 2-[4-[7-(4-isoquinolyl)-2-[[(2S)-1-methylpyrrolidin-2-yl]methoxy]-6,8-dihydro-5H-pyrido[3,4-d]pyrimidin-4-yl]-1-prop-2-enoyl-piperazin-2-yl]acetonitrile]",1 to 1000
8,"C=CC(=O)N1CCN(c2nc(O[C@H](C)CN(C)C)nc3c2CCN(c2cc(O)cc4ccccc24)C3)CC1CC#N (stereo partly drawn) [Example 150, 2-(1-acryloyl-4-(2-(((R)-1-(dimethylamino)propan-2-yl)oxy)-7-(3-hydroxynaphthalen-1-yl)-5,6,7,8-tetrahydropyrido[3,4-d]pyrimidin-4-yl)piperazin-2-yl)acetonitrile]",1 to 1000
9,"C=CC(=O)N1CCN(c2nc(OCCN3CCCC[C@@H]3C)nc3c2CCN(c2cc(O)cc4ccccc24)C3)CC1 [Example 88, (S)-1-(4-(7-(3-hydroxynaphthalen-1-yl)-2-(2-(2-methylpiperidin-1-yl)ethoxy)-5,6,7,8-tetrahydropyrido[3,4-d]pyrimidin-4-yl)piperazin-1-yl)prop-2-en-1-one]",1 to 1000
10,"C=CC(=O)N1CCN(c2nc(OCCCN3C[C@@H]4C[C@H]3CO4)nc3c2CCN(c2cc(O)cc4ccccc24)C3)CC1CC#N (stereo partly drawn) [Example 153, 2-[4-[7-(3-hydroxy-1-naphthyl)-2-[3-[(1S,4S)-2-oxa-5-azabicyclo[2.2.1]heptan-5-yl]propoxy]-6,8-dihydro-5H-pyrido[3,4-d]pyrimidin-4-yl]-1-prop-2-enoyl-piperazin-2-yl]acetonitrile]",1 to 1000
11,"C=CC(=O)N1CCN(c2nc(OC[C@@H]3CCCN3C)nc3c2CCN(c2c(F)cccc2C(F)(F)F)C3)CC1CC#N (stereo partly drawn) [Example 275, 2-(1-acryloyl-4-(7-(2-fluoro-6-(trifluoromethyl)phenyl)-2-(((S)-1-methylpyrrolidin-2-yl)methoxy)-5,6,7,8-tetrahydropyrido[3,4-d]pyrimidin-4-yl)piperazin-2-yl)acetonitrile]",1 to 1000
12,"C=CC(=O)N1CCN(c2nc(OC[C@H]3CN(C)CCN3)nc3c2CCN(c2cccc4ccccc24)C3)CC1CC#N (stereo partly drawn) [Example 224, 2-(1-acryloyl-4-(2-(((R)-4-methylpiperazin-2-yl)methoxy)-7-(naphthalen-1-yl)-5,6,7,8-tetrahydropyrido[3,4-d]pyrimidin-4-yl)piperazin-2-yl)acetonitrile]",1 to 1000
13,"C=CC(=O)N1CCN(c2nc(OCCN(C)C)nc3c2CCN(c2cc(O)cc4ccccc24)C3)C[C@@H]1CC#N [Example 176, 2-[(2S)-4-[2-[2-(dimethylamino)ethoxy]-7-(3-hydroxy-1-naphthyl)-6,8-dihydro-5H-pyrido[3,4-d]pyrimidin-4-yl]-1-prop-2-enoyl-piperazin-2-yl]acetonitrile]",1 to 1000
14,"C=CC(=O)N1CCN(c2nc(OCCN(C)C)nc3c2CCN(c2cc(O)cc4ccccc24)C3)[C@@H](C)C1 [Example 116, (S)-1-(4-(2-(2-(dimethylamino)ethoxy)-7-(3-hydroxynaphthalen-1-yl)-5,6,7,8-tetrahydropyrido[3,4-d]pyrimidin-4-yl)-3-methylpiperazin-1-yl)prop-2-en-1-one]",1 to 1000
15,"C=CC(=O)N1CCN(c2nc(OCC(C)(C)N(C)C)nc3c2CCN(c2cccc4ccccc24)C3)CC1CC#N (stereo not drawn) [Example 269, 2-(1-acryloyl-4-(2-(2-(dimethylamino)-2-methylpropoxy)-7-(naphthalen-1-yl)-5,6,7,8-tetrahydropyrido[3,4-d]pyrimidin-4-yl)piperazin-2-yl)acetonitrile]",1 to 1000
16,"C=CC(=O)N1CCN(c2nc(OCCCN3C[C@@H]4C[C@H]3CO4)nc3c2CCN(c2cccc4ccccc24)C3)CC1CC#N (stereo partly drawn) [Example 154, 2-[4-[7-(1-naphthyl)-2-[3-[(1S,4S)-2-oxa-5-azabicyclo[2.2.1]heptan-5-yl]propoxy]-6,8-dihydro-5H-pyrido[3,4-d]pyrimidin-4-yl]-1-prop-2-enoyl-piperazin-2-yl]acetonitrile]",1 to 1000
17,"C=CC(=O)N1CCN(c2nc(OC[C@H]3CCCN3C)nc3c2CCN(c2cccc(F)c2C(F)(F)F)C3)C[C@@H]1CC#N [Example 274, 2-((S)-1-acryloyl-4-(7-(3-fluoro-2-(trifluoromethyl)phenyl)-2-(((R)-1-methylpyrrolidin-2-yl)methoxy)-5,6,7,8-tetrahydropyrido[3,4-d]pyrimidin-4-yl)piperazin-2-yl)acetonitrile]",1 to 1000
18,"C=CC(=O)N1CCN(c2nc(OC[C@@H]3CCCN3C)nc3c2CCN(c2cccnc2C(F)(F)F)C3)CC1CC#N (stereo partly drawn) [Example 226, 2-(1-acryloyl-4-(2-(((S)-1-methylpyrrolidin-2-yl)methoxy)-7-(2-(trifluoromethyl)pyridin-3-yl)-5,6,7,8-tetrahydropyrido[3,4-d]pyrimidin-4-yl)piperazin-2-yl)acetonitrile]",1 to 1000
19,"C=CC(=O)N1CCN(c2nc(OC[C@@H]3CCCN3C)nc3c2CCN(c2cc(O)cc4ccccc24)C3)[C@@H](C)C1 [Example 202, 1-((S)-4-(7-(3-hydroxynaphthalen-1-yl)-2-(((S)-1-methylpyrrolidin-2-yl)methoxy)-5,6,7,8-tetrahydropyrido[3,4-d]pyrimidin-4-yl)-3-methylpiperazin-1-yl)prop-2-en-1-one]",1 to 1000
20,"C=CC(=O)N1CCN(c2nc(O[C@@H](C)[C@@H]3CCCN3C)nc3c2CCN(c2cc(O)cc4ccccc24)C3)CC1 [Example 130, 1-(4-(7-(3-hydroxynaphthalen-1-yl)-2-((S)-1-((S)-1-methylpyrrolidin-2-yl)ethoxy)-5,6,7,8-tetrahydropyrido[3,4-d]pyrimidin-4-yl)piperazin-1-yl)prop-2-en-1-one]",1 to 1000
